Reference: patent publication US20040096815A1, “Method of identifying an eventual modification of at least one biological parameter making use of living cells which are subjected to a stress and living cells which are not subjected to this same stress” (COLETICA, priority 2002, published 2004)
Read-outs that look alike come from different tables or passages of the source.

Legend:
[1] = test system: reconstructed gingival mucous membrane epithelia; experiment: mRNA Expression Array on reconstructed gingival mucous membrane epithelia treated with irritant/sensitizing agents or actives; format: cell-based; conditions: (treated/non-stressed)x100; 20 μl per epithelium 1 h, then 24 h; SLS 5%, LPS 1000 U/ml, Prednisolone 10 mM, Inhipase 3%
Description: 1 to 2.10^6 epithelial cells of gingival mucous membrane called <<reference gingival mucous membrane epithelia cells>> (gingival biopsy, Passage 3 (3rd amplification by trypsination)), extracted as described in Example 1, are sown in Boyden chamber-type inserts (membrane of porosity 0.4 μm and diameter 10 mm—fibroblast nutrient under layer), in a DMEM-Glutamax/Ham F-12 (ratio 3/1 v/v) culture medium supplemented with 10% of Hyclone II calf serum, with ascorbic acid-2-phosphate at a final concentration of 1 millimolar, with EGF at a final concentration of 10 ng/mL, with hydrocortisone at a final concentration of 0.4 micrograms/milliliter, with umulin at a final concentration of 0.12 IU/milliliter, with isuprel at a final concentration of 0.4 micrograms/milliliter, with triiodothyronine at a final concentration of 2.10^−9 molar, with adenine at a final concentration of 24.3 micrograms/milliliter, with penicillin at a final concentration of 100 IU/milliliter, with amphotericin B at a final concentration of 1 microgram/milliliter, and with gentamycin at a final concentration of 20 micrograms/milliliter, and for a period of culture by immersion of 3 to 8 days.
The cultures of epithelial cells are then maintained in immersion for 12 to 18 days in the same culture medium as that used for the immersion culture, except the percentage of calf serum which is lowered by 10% to 1%.
At the end of experimentation, the medium is eliminated and replaced with PBS pH 7.4, and the reconstructed epithelia Which are present in the inserts are stressed by various potentially irritant or sensitizing agents, at the rate of 20 μl per epithelium and for one hour: 5% sodium lauryl sulfate (SLS), Lipopolysaccharide (LPS) 1000 U/ml, an anti-inflammatory agent Prednisolone 10 mM (Sigma) and an active Inhipase® 3% (extract of the root of pueraria lobata, Coletica) also at the rate of 20 μl per epithelium, for 1 hour. The agents applied on the reconstructed epithelia are then eliminated and then the reconstructed epithelia are incubated for 24 additional hours in immersion medium without calf serum. Certain reconstructed epithelia are analyzed in terms of cell viability by a test with MTT (methylthiazoletetrazolium). Other reconstructed epithelia are scraped off and taken up into Tri Reagent® (T9424 Sigma, St Louis USA) and then extracted with chloroform. After centrifugation at 12,000 g for 15 minutes at 4° C., the RNAs are found in the upper layer.
The determination of the mRNAs of the epithelia is made by Expression Array (R&D System), according to the protocol defined by the supplier.

[2] = test system: pigmented reconstructed skins; experiment: Interleukin secretion (Fluorokine MAP) of pigmented reconstructed skins under repeated solar irradiation with anti-oxidant actives; format: cell-based; conditions: for restoring cell viability and synthesis of pro-inflammatory interleukins after solar irradiation: actives at 3% in a cosmetic formulation; for IL1 beta secretion (Fluorokine MAP) / IL6 secretion (Fluorokine MAP) / IL8 secretion (Fluorokine MAP) / TNF alpha secretion (Fluorokine MAP): solar irradiation 561 KJ/m^2 twice per week for two weeks, 8 μl cosmetic formulation with active at 3%, 10 days
Description: The reconstructed dermis comprising cells called <<stressed cells>> or <<reference cells>> are then incubated in a medium without serum (FBM, Promocell) for 24 hours. The cell viability in the matrices is evaluated by a test with MTT (methylthiazoletetrazolium) and is expressed in percentage of the non-irradiated control. The media are collected, centrifuged, and the cytokines content is determined by the Fluorokine MAP kit (R&D Systems). Briefly, 50 μl of standards or of samples are pipetted into identified wells. 50 μl of microparticles immobilizing specific antibodies of different cytokines are added into the wells as a function of a pre-defined plate plan. After one hour of incubation under orbital agitation, and elimination of the non-fixed substances by washing, labeled antibodies which are specific of different cytokines are added into the wells and are incubated for 2 hours under orbital agitation. After washing, the microparticles are suspended in washing buffer, are agitated for 1 minute under orbital agitation. The reading is carried out immediately on a Luminex 100 Analyser (R&D Systems). The contents of the different cytokines which are present in the media analyzed are determined by virtue of calibration ranges made with highly purified recombinant human cytokines. This technique enables an experimentation to analyze the cellular secretion of various cytokines (IL-1β, IL-2, IL-4, IL-6, IL-8, IL-10, TNFα, GM-CSF, G-CSF, VEGF, bFGF, G-CSF, IFNγ).
The cells extracted are obtained from a mammary biopsy non-exposed to the stress studied. 400,000 fibroblasts, amplified until passage 5 (5th amplification by trypsination) as described in Example 1, are sown on dermal substrates based on surfaced sponges of collagen, in a DMEM-Glutamax culture medium supplemented with 10% of hyclone II calf serum, with ascorbic acid-2-phosphate at a final concentration of 1 millimolar, with EGF or Epidermal growth factor at a final concentration of 10 ng/mL, with penicillin at a final concentration of 100 IU/milliliter, with amphotericin B at a final concentration of 1 microgram/milliliter, and with gentamycin at a final concentration of 20 micrograms/milliliter, and for a period of culture of 14 days.
Then, 400,000 keratinocytes and 10,000 melanocytes, amplified until passage 2 (2nd amplification by trypsination) as described in Example 1, are sown on the dermal equivalents in a DMEM-Glutamax/Ham F-12 (ratio 3/1 v/v) culture medium supplemented with 10% of Hyclone II calf serum, with ascorbic acid-2-phosphate at a final concentration of 1 millimolar, with EGF at a final concentration of 10 ng/mL, with hydrocortisone at a final concentration of 0.4 micrograms/milliliter, with umulin at a final concentration of 0.12 IU/milliliter, with isuprel at a final concentration of 0.4 micrograms/milliliter, with triiodothyronine at a final concentration of 2.10^−9 molar, with adenine at a final concentration of 24.3 micrograms/milliliter, with penicillin at a final concentration of 100 IU/milliliter, with amphotericin B at a final concentration of 1 microgram/milliliter, and with gentamycin at a final concentration of 20 micrograms/milliliter, and for a period of immersion culture of 7 days.
The cultures are then placed at the air-liquid interface for 14 days in the same culture medium as that used for the immersion culture, except the calf serum, the hydrocortisone, the isuprel, the triiodothyronine and the umulin.
Twice per week and for two weeks, the immersion medium is eliminated and replaced by PBS at pH 7.4. Certain pigmented reconstructed skins present in the inserts are preserved at ambient temperature; this model comprises cells which are called “reference cells”. Other pigmented reconstructed skins present in the inserts are irradiated at 561 KJ/m^2 (corresponding to an average hour of exposure in Central Europe) with the aid of a solar irradiator Suntest CPS+ (ATLAS); this model comprises cells which are called “stressed cells”.

reconstructed skins = test system: reconstructed skins
Description: Reconstructed skins are made according to the protocol described in Example 6.
The UVB irradiation at the rate of 50 mJ/cm^2 is made for half the samples comprising <> cells. The other samples are preserved at ambient temperature under the same conditions, and constitute samples comprising <> cells.
At the end of experimentation, the content of tropoelastin mRNA, collagen of type I and collagen of type III is evaluated by a real time RT-PCR technique. For this, couples of primers enabling the amplification of specific fragments of tropoelastin, of collagen of type I and of collagen of type III (sense 18/antisense 19 and sense 18/antisense 20, respectively) and actin sequence primers (541 pairs of bases) were used. After extraction in TriReagent® (Sigma) and purification of the RNAs according to the protocol of the supplier, the reactions of RT-PCR (Reverse Polymerase Transcription Chain reactions) are carried out by quantitative real time RT-PCR with the aid of the <<Opticon>> system (MJ Research).
The reaction mixture (50 μl) introduced into the well is the following, for each sample:
10 μl of RNA at the concentration of 5 ng/μl.
The primers of the various labelers used
Reaction mixture (Qiagen-25 μl 2×QuantiTect SYBR Green RT-PCR master mix containing 5 mM MgCl2+0.5 μl QuantiTect RT mix), the labeler SYBR Green I inserting itself in the DNA double strand during elongation step).
Reverse transcription: 30 min at 50° C.,
PCR reactions: [15 sec at 94° C., 30 sec at 60° C. and 30 sec at 72° C.], 50 cycles.
The absence of contamination and the purity of the products amplified are verified by the melting curves of the amplified PCR products. The products having a double peak or an abnormal melting temperature are eliminated.
The incorporation of fluorescence in the amplified DNA was evaluated continuously during the PCR cycles. This system enables obtaining fluorescence measurement curves as a function of the number of PCR cycles and thus to evaluate a relative quantity of amplified DNA.
In order to take account of the:cell population present in the reconstructed skins, all the results were attributed to the signal <>, used as housekeeping gene.
According to the experimentation, the measurement threshold of the C(T) (=cycle threshold) is fixed for T between 0.05 and 0.01 and then an arbitrary unit of measurement is calculated for each gene according to the formula:
Sgene <>=10^7X(½)^C(T)gene <<X>>
C(T)gene <> signifying the measurement threshold of the C(T) (Cycle Threshold) of the gene <>.
The values of the genes of interest are attributed to the signal <> by calculation of the ratio:
These ratios are compared between the treated and non-treated samples.

[3] = UVB 50 mJ/cm^2, then 24 h with active at 1%
[4] = UVB 50 mJ/cm^2, then 24 h with active at 3%

Compound	IL1α mRNA, factor of variation with respect to the non-stressed control [1]	IL1β mRNA, factor of variation with respect to the non-stressed control [1]	IL6 mRNA, factor of variation with respect to the non-stressed control [1]	IL7 mRNA, factor of variation with respect to the non-stressed control [1]	IL8 mRNA, factor of variation with respect to the non-stressed control [1]	IL10 mRNA, factor of variation with respect to the non-stressed control [1]	IL11 mRNA, factor of variation with respect to the non-stressed control [1]	IL12 mRNA, factor of variation with respect to the non-stressed control [1]	IL15 mRNA, factor of variation with respect to the non-stressed control [1]	IL-1R AcP mRNA, factor of variation with respect to the non-stressed control [1]	IL-1RI mRNA, factor of variation with respect to the non-stressed control [1]	IL-1RII mRNA, factor of variation with respect to the non-stressed control [1]	IL-1ra mRNA, factor of variation with respect to the non-stressed control [1]	PLA2 mRNA, factor of variation with respect to the non-stressed control [1]	TNFα mRNA, factor of variation with respect to the non-stressed control [1]	restoring cell viability and synthesis of pro-inflammatory interleukins after solar irradiation [2]	IL1 beta secretion (Fluorokine MAP) [2] [pg/mL]	IL6 secretion (Fluorokine MAP) [2] [pg/mL]	IL8 secretion (Fluorokine MAP) [2] [pg/mL]	TNF alpha secretion (Fluorokine MAP) [2] [pg/mL]	also measured
C[C@]12C=CC(=O)C=C1CC[C@@H]1[C@@H]2[C@@H](O)C[C@@]2(C)[C@H]1CC[C@]2(O)C(=O)CO [Prednisolone]	62	75	81	102	105	152	101	67	99	95	83	88	112	93	67						
CCCCCCCCCCCCOS(=O)(=O)[O-].[Na+] [SLS, sodium lauryl sulfate]	241	114	163	127	183	75	112	132	147	102	154	137	82	102	213						
Hesperitine Laurate [Flavagrum ®]																have shown an effectiveness capable of tending to restoring the reference level for these two parameters	125	452	312	105	
Quercitine Caprylate [Flavenger ®]																have shown an effectiveness capable of tending to restoring the reference level for these two parameters	97	426	294	89	limiting the UVB-induced increase in RNAs of collagen type I, type III and elastin (reconstructed skins; 1 and 3%): enables limiting the effects of the UVB stress induced by restoring, in a dose-dependent manner, the synthesis of these molecules; Collagen I mRNA, ratio R = Sgene/Sactin (reconstructed skins; [3]): 0.94; Collagen III mRNA, ratio R = Sgene/Sactin (reconstructed skins; [3]): 1.37; Elastin mRNA, ratio R = Sgene/Sactin (reconstructed skins; [3]): 4.87; Collagen I mRNA, ratio R = Sgene/Sactin (reconstructed skins; [4]): 0.92; Collagen III mRNA, ratio R = Sgene/Sactin (reconstructed skins; [4]): 1.26; Elastin mRNA, ratio R = Sgene/Sactin (reconstructed skins; [4]): 4.61
